Measurements published in article PMC9863297, “Intermolecular Interactions of Edaravone in Aqueous Solutions of Ethaline and Glyceline Inferred from Experiments and Quantum Chemistry Computations” (Molecules, 2023).
Like-named read-outs stand apart in the source and are kept apart here.

Experiment: Edaravone solubility, slurry/shake-flask method with spectrophotometric determination at 243 nm
Type: physicochemical
Details: for solubility at 24 h: thermodynamic from solid, read-out: cE solubility concentration; for mole fraction solubility advantage of 1:2 composition over unimolar composition: DES involving ethylene glycol; for volume of saturated solution containing the recommended 60 mg: solubility at 298.15 K
Experimental: The first step in obtaining a calibration curve was the preparation of a stock solution of edaravone with a concentration of 2.3 mg/mL. This initial solution was successfully diluted in 10 mL volumetric flasks with methanol and the obtained solutions with decreasing concentrations were measured spectrophotometrically. […] Three separate curves were obtained, and the final curve resulted from averaging. […] The limits of detection (LOD) and quantification (LOQ) were calculated as 5.899∙10^−4 mg/mL and 1.770∙10^−3 mg/mL, respectively.
All of the studied deep eutectic solvents included choline chloride, while the second constituent was either glycerol or ethylene glycol. In order to prepare a DES formulation, choline chloride was mixed with the second compound in different molar ratios in sealed test tubes and placed in a water bath at 363.15 K until the formation of a uniform solution. The obtained DES were either used in their neat form or water was added to them in different proportions in order to form binary systems.
During the next stage, edaravone was added in excess amounts to the test tubes containing both neat DES and binary mixtures, which enabled us to obtain its saturated solutions. Samples prepared in such a manner were placed in an Orbital Shaker Incubator ES-20/60 from Biosan (Riga, Latvia) and incubated for 24 h at different temperatures, namely 298.15 K, 303.15 K, 308.15 K and 313.15 K. The temperature adjustment accuracy was 0.1 K and its variability in a 24 h cycle was ±0.5 K. Apart from heating, all of the samples were mixed at 60 rev/min. The increased viscosity and density of DES systems required the samples to be centrifuged at 1000 rev/min for 5 min with the use of EBA 20 centrifuge from Hettich (Tuttlingen, Germany) enabling the undissolved precipitate to remain on the bottom of the test tubes. Next, the samples were filtered using a syringe equipped with a PTFE syringe filer with 0.22 µm pore size. In order to avoid precipitation, the test tubes, syringes and filters were initially heated at a temperature equal to the one of the handled samples. Finally, small amounts of the obtained filtrate were transferred to test tubes filled with methanol and the diluted samples were measured spectrophotometrically. Additionally, for the determination of the mole fractions of edaravone, the density of the samples was measured by weighing a fixed volume of the solution in 10 mL volumetric flasks.
For determining the solubility of edaravone in the studied systems, the samples prepared, as described above, were measured spectrophotometrically using an A360 spectrophotometer from AOE Instruments (Shanghai, China). The spectra were recorded in the 190 nm to 500 nm wavelength range and 1 nm resolution. Methanol was used for the initial calibration of the spectrophotometer and for the dilution of the measured samples, which was conducted in order for the absorbance values to remain below 2.5. The absorbance values at 243 nm were taken into account and based on the calibration curve prepared earlier, the concentration of edaravone in the samples was determined, followed by its mole fractions. The values were averaged from three separate measurements.

`CC1=NN(c2ccccc2)C(=O)C1` [edaravone, 5-methyl-2-phenyl-4H-pyrazol-3-one] showed a solubility at 24 h (40 °C, aqueous with cosolvent or surfactant or cyclodextrin, water + GLE (ChCl:GL 1:2), x*GLE = 0.6, 313.15 K) of 692 mg/mL, a solubility at 24 h (40 °C, aqueous with cosolvent or surfactant or cyclodextrin, water + GLE (ChCl:GL 1:2), x*GLE = 0.8, 313.15 K) of 602 mg/mL and a solubility at 24 h (40 °C, organic solvent or mixture, neat DES choline chloride + glycerol (GLE) 1:1 molar ratio, 313.15 K) of 398 mg/mL. The solubility at 24 h (40 °C, organic solvent or mixture, neat DES choline chloride + glycerol (GLE) 1:2 molar ratio (x*GLE = 1.0), 313.15 K) was 492 mg/mL, the solubility at 24 h (40 °C, organic solvent or mixture, neat DES choline chloride + glycerol (GLE) 1:4 molar ratio, 313.15 K) was 470 mg/mL and the “mole fraction solubility advantage of 1:2 composition over unimolar composition” value (298.15 K) was 53%. The “mole fraction solubility advantage of 1:2 composition over unimolar composition” value (313.15 K) was 21%, the solubility at 24 h (deep eutectic solvent + water binary mixture, 25 °C, aqueous with cosolvent or surfactant or cyclodextrin, water + ETA (ChCl:EG 1:2), x*ETA = 0.8, 298.15 K) was 363 mg/mL and the solubility at 24 h (deep eutectic solvent + water binary mixture, 30 °C, aqueous with cosolvent or surfactant or cyclodextrin, water + ETA (ChCl:EG 1:2), x*ETA = 0.6, 303.15 K) was 561 mg/mL. For the same molecule, the solubility at 24 h (deep eutectic solvent + water binary mixture, 30 °C, aqueous with cosolvent or surfactant or cyclodextrin, water + ETA (ChCl:EG 1:2), x*ETA = 0.8, 303.15 K) was 452 mg/mL, the solubility at 24 h (deep eutectic solvent + water binary mixture, 35 °C, aqueous with cosolvent or surfactant or cyclodextrin, water + ETA (ChCl:EG 1:2), x*ETA = 0.5, 308.15 K) was 664 mg/mL and the solubility at 24 h (deep eutectic solvent + water binary mixture, 35 °C, aqueous with cosolvent or surfactant or cyclodextrin, water + ETA (ChCl:EG 1:2), x*ETA = 0.6, 308.15 K) was 670 mg/mL. It also gave a solubility at 24 h (deep eutectic solvent + water binary mixture, 35 °C, aqueous with cosolvent or surfactant or cyclodextrin, water + ETA (ChCl:EG 1:2), x*ETA = 0.8, 308.15 K) of 561 mg/mL, a solubility at 24 h (deep eutectic solvent + water binary mixture, 40 °C, aqueous with cosolvent or surfactant or cyclodextrin, water + ETA (ChCl:EG 1:2), x*ETA = 0.5, 313.15 K) of 744 mg/mL and a solubility at 24 h (deep eutectic solvent + water binary mixture, 40 °C, aqueous with cosolvent or surfactant or cyclodextrin, water + ETA (ChCl:EG 1:2), x*ETA = 0.6, 313.15 K) of 753 mg/mL. The solubility at 24 h (deep eutectic solvent + water binary mixture, 40 °C, aqueous with cosolvent or surfactant or cyclodextrin, water + ETA (ChCl:EG 1:2), x*ETA = 0.8, 313.15 K) was 655 mg/mL, the “solubility increase in optimal binary composition compared to neat DES” value (glycerol-containing systems, x*DES = 0.6, average) was 28% and the “volume of saturated solution containing the recommended 60 mg” value (neat DES ETA) was 0.20 mL. For the same molecule, the “volume of saturated solution containing the recommended 60 mg” value (neat DES GLE) was 0.32 mL, the “xE mole fraction solubility” value (neat DES choline chloride + ethylene glycol (ETA) 1:1 molar ratio, 298.15 K) was 1031.93 (±62.91) mole fraction ∙10^4 and the “xE mole fraction solubility” value (neat DES choline chloride + ethylene glycol (ETA) 1:1 molar ratio, 303.15 K) was 1400.98 (±40.74) mole fraction ∙10^4. The “xE mole fraction solubility” value (neat DES choline chloride + ethylene glycol (ETA) 1:1 molar ratio, 308.15 K) was 2089.82 (±49.36) mole fraction ∙10^4, the “xE mole fraction solubility” value (neat DES choline chloride + ethylene glycol (ETA) 1:1 molar ratio, 313.15 K) was 2966.24 (±120.59) mole fraction ∙10^4 and the “xE mole fraction solubility” value (neat DES choline chloride + ethylene glycol (ETA) 1:2 molar ratio (x*ETA = 1.0), 298.15 K) was 1579.47 (±70.73) mole fraction ∙10^4. For the same molecule, the “xE mole fraction solubility” value (neat DES choline chloride + ethylene glycol (ETA) 1:2 molar ratio (x*ETA = 1.0), 303.15 K) was 2135.68 (±42.46) mole fraction ∙10^4, the “xE mole fraction solubility” value (neat DES choline chloride + ethylene glycol (ETA) 1:2 molar ratio (x*ETA = 1.0), 308.15 K) was 2878.22 (±133.85) mole fraction ∙10^4 and the “xE mole fraction solubility” value (neat DES choline chloride + ethylene glycol (ETA) 1:2 molar ratio (x*ETA = 1.0), 313.15 K) was 3602.21 (±117.41) mole fraction ∙10^4. The “xE mole fraction solubility” value (neat DES choline chloride + ethylene glycol (ETA) 1:4 molar ratio, 298.15 K) was 1306.68 (±55.75) mole fraction ∙10^4, the “xE mole fraction solubility” value (neat DES choline chloride + ethylene glycol (ETA) 1:4 molar ratio, 303.15 K) was 1677.66 (±47.52) mole fraction ∙10^4 and the “xE mole fraction solubility” value (neat DES choline chloride + ethylene glycol (ETA) 1:4 molar ratio, 308.15 K) was 2434.99 (±114.12) mole fraction ∙10^4. The “xE mole fraction solubility” value (neat DES choline chloride + ethylene glycol (ETA) 1:4 molar ratio, 313.15 K) was 3428.20 (±105.69) mole fraction ∙10^4, the “xE mole fraction solubility” value (neat DES choline chloride + glycerol (GLE) 1:1 molar ratio, 298.15 K) was 786.83 (±3.34) mole fraction ∙10^4 and the “xE mole fraction solubility” value (neat DES choline chloride + glycerol (GLE) 1:1 molar ratio, 303.15 K) was 1173.65 (±39.25) mole fraction ∙10^4. For the same molecule, the “xE mole fraction solubility” value (neat DES choline chloride + glycerol (GLE) 1:1 molar ratio, 308.15 K) was 1615.31 (±40.69) mole fraction ∙10^4, the “xE mole fraction solubility” value (neat DES choline chloride + glycerol (GLE) 1:1 molar ratio, 313.15 K) was 2429.30 (±72.71) mole fraction ∙10^4 and the “xE mole fraction solubility” value (neat DES choline chloride + glycerol (GLE) 1:2 molar ratio (x*GLE = 1.0), 298.15 K) was 1052.85 (±68.85) mole fraction ∙10^4.
